Drawing on ChEMBL document CHEMBL3860047, “Modulating the strength of hydrogen bond acceptors to achieve low Caco2 efflux for oral bioavailability of PARP inhibitors blocking centrosome clustering” (Bioorg Med Chem Lett, 2016), this text covers pKa for 4 compounds.

This series can be described thus: Dissociation constant, pKa of the compound. It counts as physicochemical.
One may read the pKa as the negative logarithm of the acid dissociation constant. Low values mean a group that gives up its proton readily, high ones a group that holds its proton tightly. `CN(C)C(=O)c1ccccc1` came in with a pKa of 1.2.

Take `NCc1ccccc1` [BENZYLAMINE]: the pKa is 9.6. `c1ccnnc1` [PYRIDAZINE] had a pKa of 2.24.

The compound `C[S+](C)[O-]` [DIMETHYL SULFOXIDE] had a pKa of 1.54.
